Structures are written as SMILES.

The text below walks through data of patent US20050049240A1, “Tetrahydroisochinolines, their production and the use thereof as analgesics” (Bayer HealthCare AG, priority 2001, published 2005).

For the experiment, the target named is T1, human neurotensin-2 (NT-2) receptor (Homo sapiens, UniProt O95665).
T1 construct: expressed in transfected cells
Nature of the experiment: NT2 antagonism assay (intracellular calcium release in CHO or HEK 293 cells recombinantly expressing the receptor). Type of experiment: cell-based. Particulars: functional in vitro assay; block of agonist (e.g. SR48692)-dependent intracellular calcium release; recombinant human NT-2 receptor. From the text:
The activation of the human neurotensin-2 (NT-2) receptor by an agonist, for example SR48692, 2-{[1-(7-chloroquinolin-4-yl)-5-(2,6-dimethoxyphenyl)pyrazol-3-yl]carbonylamino}tricyclo[3.3.3.1 ^3,7]decane-2-carboxylic acid, leads, via stimulation of phospholipase C, to the release of calcium ions from intracellular stores. Antagonists block the activation of the receptor by the agonist and therefore also the agonist-dependent stimulation of phospholipase C and the intracellular calcium release initiated thereby.
A functional in vitro assay may be carried out with stable cell lines, for example CHO or HEK 293, which express the human NT-2 receptor recombinantly. The activity of the receptor is determined via measurement of the intracellular calcium release coupled thereto (in microtiter plates having 96, 384 and 1536 wells/plate). The concentration-dependent action of the NT-2 ligands tested on the receptor activity may be reported as IC50.
A general note: Calcium assays in cells follow changes in intracellular calcium, usually with a dye or a luminescent sensor.

T1 sequence (O95665 whole entry): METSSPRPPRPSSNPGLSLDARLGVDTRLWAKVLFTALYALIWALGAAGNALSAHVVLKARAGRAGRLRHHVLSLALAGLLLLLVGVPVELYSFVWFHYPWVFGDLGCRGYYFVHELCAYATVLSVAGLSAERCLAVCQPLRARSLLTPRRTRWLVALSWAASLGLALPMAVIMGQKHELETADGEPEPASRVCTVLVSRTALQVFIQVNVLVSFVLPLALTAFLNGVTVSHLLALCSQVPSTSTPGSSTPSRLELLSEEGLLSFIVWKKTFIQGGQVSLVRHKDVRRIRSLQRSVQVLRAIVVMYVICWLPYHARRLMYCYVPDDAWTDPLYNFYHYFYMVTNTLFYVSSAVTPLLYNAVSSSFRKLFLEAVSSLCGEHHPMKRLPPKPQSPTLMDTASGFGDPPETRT

Turning to `NC(=O)COc1ccccc1C1C(C(=O)NCc2cccnc2)c2ccccc2C(=O)N1CCC1=CCCCC1` (single isomer, unassigned) [enantiomer B of example 1, 3,4-trans-3-[2-(2-Carbamoylmethoxy)phenyl]-2-[2-(1-cyclohexen-1-yl)ethyl]-1-oxo-N-(3-pyridinylmethyl)-1,2,3,4-tetrahydro-4-isoquinolinecarboxamide], the 50% inhibitory concentration (IC50) (commonly the concentration that inhibits the measured activity by half) was below 200 nM.
